From patent publication US20080292619A1, “Pharmaceutical Composition Containing Meltrin Antagonist” (MOCHIDA PHARMACEUTICAL CO., LTD., priority 2004, published 2008)
In the oligonucleotide strings, read from the 5' end, every base follows the letter of its sugar. An asterisk marks phosphorothioate; unmarked linkages are phosphodiester. Other units and linkages are bracketed, terminal groups are in braces. A string of capitals states the bases alone. d = 2'-deoxy (DNA)

Test system: human meltrin α RNA
Assay: Suppression of human meltrin α expression by antisense compound in RD cell (real time PCR)
Assay type: cell-based
Conditions: 200 nM; RD cell; corrected by GAPDH
Outline: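 RD cells transfected with heat-denatured antisense oligodeoxynucleotide plus Lipofectin in Opti-MEM for 4 h at 37° C, then cultured 18 h. Meltrin α RNA quantified by TaqMan RT-PCR against plasmid standard curve, GAPDH-corrected; suppression vs untreated cells, rated +/++/+++ for ≥30/50/70%.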

Substance	suppression rate of expression, 200 nM
H076: tccaggctggtctccaagtc (dT*dC*dC*dA*dG*dG*dC*dT*dG*dG*dT*dC*dT*dC*dC*dA*dA*dG*dT*dC)	++ (“++” when the suppression rate was at least 50%)
H077: ggcacacccccattcctttc (dG*dG*dC*dA*dC*dA*dC*dC*dC*dC*dC*dA*dT*dT*dC*dC*dT*dT*dT*dC)	+ (“+” when the suppression rate was at least 30%)
H079: tggcccccgaaagactccct (dT*dG*dG*dC*dC*dC*dC*dC*dG*dA*dA*dA*dG*dA*dC*dT*dC*dC*dC*dT; antisense)	++ (“++” when the suppression rate was at least 50%)
H080: caaatctgttcccacacttc (dC*dA*dA*dA*dT*dC*dT*dG*dT*dT*dC*dC*dC*dA*dC*dA*dC*dT*dT*dC; antisense)	+ (“+” when the suppression rate was at least 30%)
H082: tcctctggctccccacagtc (dT*dC*dC*dT*dC*dT*dG*dG*dC*dT*dC*dC*dC*dC*dA*dC*dA*dG*dT*dC; antisense)	+ (“+” when the suppression rate was at least 30%)
H084: cagggtacaggtggtggcat (dC*dA*dG*dG*dG*dT*dA*dC*dA*dG*dG*dT*dG*dG*dT*dG*dG*dC*dA*dT; antisense)	++ (“++” when the suppression rate was at least 50%)
H085: gcgcacacagcgtccggctt (dG*dC*dG*dC*dA*dC*dA*dC*dA*dG*dC*dG*dT*dC*dC*dG*dG*dC*dT*dT; antisense)	+ (“+” when the suppression rate was at least 30%)
H088: gagtccctgcacgctgttcc (dG*dA*dG*dT*dC*dC*dC*dT*dG*dC*dA*dC*dG*dC*dT*dG*dT*dT*dC*dC; antisense)	+ (“+” when the suppression rate was at least 30%)
H089: ggaggtcacaggagttgctg (dG*dG*dA*dG*dG*dT*dC*dA*dC*dA*dG*dG*dA*dG*dT*dT*dG*dC*dT*dG; antisense)	+ (“+” when the suppression rate was at least 30%)
H090: ggcccctgtgcagaactctg (dG*dG*dC*dC*dC*dC*dT*dG*dT*dG*dC*dA*dG*dA*dA*dC*dT*dC*dT*dG; antisense)	++ (“++” when the suppression rate was at least 50%)
H091: ttggctgggcagtgagggct (dT*dT*dG*dG*dC*dT*dG*dG*dG*dC*dA*dG*dT*dG*dA*dG*dG*dG*dC*dT; antisense)	++ (“++” when the suppression rate was at least 50%)
H092: gcccatcgtgcaggtacacg (dG*dC*dC*dC*dA*dT*dC*dG*dT*dG*dC*dA*dG*dG*dT*dA*dC*dA*dC*dG; antisense)	++ (“++” when the suppression rate was at least 50%)
H093: gtccacatcctgacatgagt (dG*dT*dC*dC*dA*dC*dA*dT*dC*dC*dT*dG*dA*dC*dA*dT*dG*dA*dG*dT; antisense)	+ (“+” when the suppression rate was at least 30%)

Same assay, conditions: 200 nM; chimeric 2′-methoxy antisense oligonucleotides; RD cell

Substance	suppression rate of expression, 200 nM
H076-OMe2: chimeric antisense oligonucleotide CTTTCtccaggctggTCTCC, uppercase 2′-methoxy nucleotides, lowercase phosphorothioate nucleotides (CTTTCTCCAGGCTGGTCTCC; 2'-O-methyl at 1, 2, 3, 4, 5, 16, 17, 18, 19, 20, other sugars, backbone and T or U not given here; lowercase gap nucleotides phosphorothioate)	+++ (“+++” when the suppression rate was at least 70%)
H077-OMe2: chimeric antisense oligonucleotide AAACAggcacaccccCATTC, uppercase 2′-methoxy nucleotides, lowercase phosphorothioate nucleotides (AAACAGGCACACCCCCATTC; 2'-O-methyl at 1, 2, 3, 4, 5, 16, 17, 18, 19, 20, other sugars, backbone and T or U not given here; lowercase gap nucleotides phosphorothioate)	+ (“+” when the suppression rate was at least 30%)
